# Laboratory results taken from patent publication US10329256B2, “(Hetero)aryl cyclopropylamine compounds as LSD1 inhibitors” (Oryzon Genomics, S.A., priority 2011, dated 2019).
# Structures can show the parent of a compound that is named as a salt.
# System: THP-1 cells
# Assay: cells
# Assay type: cell-based
# Conditions: Homo sapiens, THP-1, 96 h
# Protocol: By analyzing the induction of CD11b membrane expression on THP-1 cells we are assessing the ability of LSD1 inhibitors to induce terminal monocytic differentiation of a MLL-AF9 AML cell line.
# They carry t(9; 11)(p21; q23) leading to MLL-MLLT3 (MLL-AF9) fusion gene. This cell line can undergo monocytic differentiation upon treatment with the appropriate stimulus.
# In this assay, 150,000 THP-1 cells were seeded in 1 ml of complete culture medium in 6-well tissue culture plates. Serial dilutions of the compounds were prepared in DMSO and then further diluted in complete medium to generate solutions of concentrations that are double of the final concentration at which the cells will be exposed. 1 ml of these 2× concentrated solutions was added to the cells.
# Cells were kept in the presence of compounds for 96 h at a 5% CO2 atmosphere at 37° C. After this treatment period, cells were harvested, washed twice with PBS buffer and placed in a V-bottom 96-well plate. Each treated sample was split in two.
# Percentage of CD11b positive cells, as an indicator of monocytic differentiation, was determined compared to isotype control antibody stained cells. EC50 values were calculated by non-linear regression analysis.
row,SMILES,EC50 [nM]
1,"c1ccc([C@H]2C[C@@H]2NC2CCNCC2)cc1 (racemic) [Example 1, N-((trans)-2-phenylcyclopropyl)piperidin-4-amine hydrochloride]",2.1
2,"c1ccc([C@@H]2C[C@H]2NC2CCNCC2)cc1 [Example 3, N-((1R,2S)-2-phenylcyclopropyl)piperidin-4-amine hydrochloride]",0.8
